Assay results reported in ChEMBL document CHEMBL1137205, “Rational approaches to discovery of orally active and brain-penetrable quinazolinone inhibitors of poly(ADP-ribose)polymerase” (J Med Chem, 2004).

Key:
[1] = target: Poly [ADP-ribose] polymerase 1 (Homo sapiens, UniProt P09874); assay: In vitro inhibitory concentration against human recombinant Poly (ADP-ribose) polymerase 1
[2] = Concentration in plasma was measured at 2 hrs in mice following po administration of 32 mg/kg; format: ADME, organism-based; parameters: dose 32 mg/kg, route oral; details: mouse
[3] = Concentration in plasma was measured at 0.5 hrs in mice following po administration of 32 mg/kg; format: ADME, organism-based; parameters: dose 32 mg/kg, route oral; details: mouse
[4] = Concentration in brain tissue was measured at 2 hrs in mice following po administration of 32 mg/kg; format: ADME, organism-based; parameters: dose 32 mg/kg, route oral; details: mouse
[5] = Concentration in brain tissue was measured at 0.5 hrs in mice following po administration of 32 mg/kg; format: ADME, organism-based; parameters: dose 32 mg/kg, route oral; details: mouse
[6] = Concentration in plasma was measured at 0.5 hrs in mice following ip administration of 32 mg/kg; format: ADME, organism-based; parameters: dose 32 mg/kg, route intraperitoneal; details: mouse
[7] = Concentration in brain tissue was measured at 0.5 hrs in mice following ip administration of 32 mg/kg; format: ADME, organism-based; parameters: dose 32 mg/kg, route intraperitoneal; details: mouse
[8] = Ratio of brain tissue concentration to that of plasma concentration; format: ADME; details: mouse; for Kp: brain / plasma
[9] = Cmax value in mouse after po administration of 10 mg/kg; format: ADME, organism-based; parameters: dose 10 mg/kg, route oral; details: in vivo
[10] = Clearance of compound in rat after iv administration of 10 mg/kg; format: ADME, organism-based; parameters: dose 10 mg/kg, route intravenous; details: in vivo
[11] = Clearance of compound in dog after iv administration of 1.0 mg/kg; format: ADME, organism-based, Canis lupus familiaris; parameters: dose 1 mg/kg, route intravenous; details: in vivo
[12] = Clearance in dog liver microsomes when incubated at 37 degree Celsius in the presence of NADPH-generating system
[13] = Clearance in rat liver microsomes when incubated at 37 degree Celsius in the presence of NADPH-generating system
[14] = Bioavailability in rat after iv administration of 10 mg/kg; format: ADME, organism-based; details: in vivo, read-out: Bioavailabiility
[15] = Bioavailability in dog after iv administration of 1.0 mg/kg; format: ADME, organism-based, Canis lupus familiaris; details: in vivo, read-out: Bioavailabiility
[16] = Cmax value in rat after po administration of 10 mg/kg; format: ADME, organism-based; parameters: dose 10 mg/kg, route oral; details: in vivo
[17] = Cmax value in dog after po administration of 1.0 mg/kg; format: ADME, organism-based, Canis lupus familiaris; parameters: dose 1 mg/kg, route oral; details: in vivo
[18] = Half-life in rat after iv administration of 10 mg/kg; format: ADME, organism-based; parameters: dose 10 mg/kg, route intravenous; details: in vivo
[19] = Half-life in dog after iv administration of 1.0 mg/kg; format: ADME, organism-based, Canis lupus familiaris; parameters: dose 1 mg/kg, route intravenous; details: in vivo
[20] = Clearance in human liver microsomes when incubated at 37 degree Celsius in the presence of NADPH-generating system
[21] = Clearance in mouse liver microsomes when incubated at 37 degree Celsius in the presence of NADPH-generating system
[22] = AUC value in rat after po administration of 10 mg/kg; format: ADME, organism-based, Plasma; parameters: dose 10 mg/kg, route oral; details: in vivo
[23] = AUC value in dog after po administration of 1.0 mg/kg; format: ADME, organism-based, Canis lupus familiaris, Plasma; parameters: dose 1 mg/kg, route oral; details: in vivo

Sequence of Poly [ADP-ribose] polymerase 1 (P09874 whole entry): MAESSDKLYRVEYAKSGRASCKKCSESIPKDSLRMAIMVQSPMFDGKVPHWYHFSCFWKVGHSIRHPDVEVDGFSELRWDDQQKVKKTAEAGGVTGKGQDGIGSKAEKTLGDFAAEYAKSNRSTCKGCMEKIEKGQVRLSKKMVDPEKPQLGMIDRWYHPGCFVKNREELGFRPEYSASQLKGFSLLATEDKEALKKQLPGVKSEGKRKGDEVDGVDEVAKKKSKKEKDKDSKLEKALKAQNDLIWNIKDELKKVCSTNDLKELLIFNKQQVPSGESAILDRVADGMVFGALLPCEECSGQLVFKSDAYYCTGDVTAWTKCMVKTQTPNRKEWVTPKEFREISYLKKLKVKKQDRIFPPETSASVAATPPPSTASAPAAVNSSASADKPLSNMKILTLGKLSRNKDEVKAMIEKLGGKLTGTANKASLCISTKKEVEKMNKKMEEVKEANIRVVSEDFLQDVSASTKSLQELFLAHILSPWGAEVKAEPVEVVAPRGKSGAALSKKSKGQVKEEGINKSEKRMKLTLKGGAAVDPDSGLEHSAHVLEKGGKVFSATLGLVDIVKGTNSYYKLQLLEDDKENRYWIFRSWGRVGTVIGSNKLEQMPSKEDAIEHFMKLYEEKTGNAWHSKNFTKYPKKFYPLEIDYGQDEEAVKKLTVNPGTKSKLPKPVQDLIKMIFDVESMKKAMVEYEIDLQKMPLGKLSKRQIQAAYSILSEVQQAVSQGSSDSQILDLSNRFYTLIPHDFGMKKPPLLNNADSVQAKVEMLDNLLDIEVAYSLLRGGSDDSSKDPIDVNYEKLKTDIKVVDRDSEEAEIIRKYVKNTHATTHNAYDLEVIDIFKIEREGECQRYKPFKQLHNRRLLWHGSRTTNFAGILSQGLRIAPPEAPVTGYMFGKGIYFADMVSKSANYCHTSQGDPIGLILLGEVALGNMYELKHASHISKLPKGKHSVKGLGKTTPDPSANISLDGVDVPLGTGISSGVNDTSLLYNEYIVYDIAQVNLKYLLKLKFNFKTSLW

| SMILES | IC50 [1] [nM] | concentration at 2 h [2] [ng/mL] | concentration at 0.5 h [3] [ng/mL] | concentration at 2 h [4] [ng/g] | concentration at 0.5 h [5] [ng/g] | other results |
| --- | --- | --- | --- | --- | --- | --- |
| Oc1nc(CCCN2CC=C(c3ccccc3F)CC2)nc2ccccc12 | 37 |  |  |  |  |  |
| O=c1[nH]c(CCCN2CC=C(c3cccc(F)c3)CC2)nc2ccccc12 | 23 |  |  |  |  |  |
| N#Cc1ccc(C2=CCN(CCCc3nc(O)c4ccccc4n3)CC2)cc1 | 6 | 5200 | 20000 | 540 | 4500 |  |
| Oc1nc(CCCN2CC=C(c3ccccc3)CC2)nc2ccc(Cl)cc12 | 27 | 15500 | 16200 | 14200 | 18600 |  |
| O=c1[nH]c(CCCN2CC=C(c3ccccc3)CC2)nc2c(Cl)cc(Cl)cc12 | 39 |  |  |  |  |  |
| Oc1nc(CCCN2CCC3=C(CCc4ccccc43)C2)nc2ccccc12 | 12 |  |  |  |  |  |
| Oc1nc(CCCN2CC=C(c3ccccc3)CC2)nc2cc(Cl)ccc12 | 250 | 510 | 80 | 2660 | 6120 |  |
| O=c1[nH]c(CCCN2CC=C(c3ccccc3)CC2)nc2cccc(Cl)c12 | 65 | 2170 | 4180 | 2820 | 4600 | concentration at 0.5 h [6]: 1200 ng/mL; concentration at 0.5 h [7]: 7000 ng/g; Kp [8]: 5.8 |
| Cc1ccc(C2=CCN(CCCc3nc(O)c4ccccc4n3)CC2)cc1 | 17 | 840 | 5400 | 2340 | 5310 |  |
| CCc1cccc2c(O)nc(CCCN3CC=C(c4ccccc4)CC3)nc12 | 66 |  |  |  |  |  |
| COc1ccccc1C1=CCN(CCCc2nc(O)c3ccccc3n2)CC1 | 170 |  |  |  |  |  |
| Oc1nc(CCCN2CC=C(c3ccc(-[n+]4ccccc4)cc3)CC2)nc2ccccc12 | 12 | 620 | 14100 | 300 | 2760 |  |
| O=c1[nH]c(CCCC2CC=C(c3ccccc3)CC2)nc2ccccc12 (stereo not given) | > 1000 |  |  |  |  |  |
| Cc1cccc2c(=O)[nH]c(CCCN3CC=C(c4ccccc4)CC3)nc12 | 14 | 400 | 940 | 730 | 2540 |  |
| Oc1nc(CCCN2CCN(c3ccccc3)CC2)nc2ccccc12 |  | 530 | 2270 | 300 | 2850 |  |
| O=c1[nH]c(CCCN2CCC(c3ccccc3)CC2)nc2ccccc12 | 46 |  | 250 | 100 | 370 |  |
| O=c1[nH]c(CCCN2CC=C(c3ccc(F)cc3)CC2)nc2ccccc12 | 8.9 | 3480 | 6830 | 1160 | 3540 |  |
| O=c1[nH]c(CCCN2CC=C(c3ccc(Cl)cc3)CC2)nc2ccccc12 | 23 | 2780 | 12100 | 9410 | 23900 |  |
| O=c1[nH]c(CCCN2CC=C(c3ccccc3)CC2)nc2c(Cl)cccc12 | 26 | 1200 | 1280 | 8430 | 7990 |  |
| O=c1[nH]c(CCCN2CC=C(c3ccc(F)cc3)CC2)nc2c(Cl)cccc12 | 13 | 500 | 1000 | 2100 | 5600 | Cmax [9]: 300 ng/mL; clearance [10]: 13.5 mL/min/kg; clearance [11]: 4.8 mL/min/kg; CLint scaled [12]: 141 mL/min/kg; CLint scaled [13]: 1240 mL/min/kg; bioavailability [14]: 20%; bioavailability [15]: 70%; Cmax [16]: 1330 ng/mL; Cmax [17]: 280 ng/mL; half-life [18]: 1.4 h; half-life [19]: 6 h; CLint scaled [20]: 156 mL/min/kg; CLint scaled [21]: 2250 mL/min/kg; AUC [22]: 2.52 µg/h/mL; AUC [23]: 3.16 µg/h/mL; Kp [8]: 5.6; Ratio ([8]; plasma): 4.2 |
| COc1cccc2c(=O)[nH]c(CCCN3CC=C(c4ccccc4)CC3)nc12 | 26 |  | 240 |  | 1150 |  |
| O=c1[nH]c(CCCN2CC=C(c3ccc(C(F)(F)F)cc3)CC2)nc2ccccc12 | 25 | 3270 | 6800 | 19500 | 23400 |  |
| O=c1[nH]c(=O)n(CCCCN2CC=C(c3ccccc3)CC2)c2cccc(F)c12 |  |  |  |  |  | concentration at 0.5 h [6]: 700 ng/mL; concentration at 0.5 h [7]: 600 ng/g; Kp [8]: 0.86 |
| Oc1nc(CCCN2CC=C(c3ccc(-c4ccccc4)cc3)CC2)nc2ccccc12 | 34 |  |  |  |  |  |
| Cc1nc2cccc(Cl)c2c(=O)[nH]1 |  |  |  |  |  | concentration at 0.5 h [6]: 6700 ng/mL; concentration at 0.5 h [7]: 5500 ng/g; Kp [8]: 0.82 |
| O=c1[nH]c(CCCN2CC=C(c3ccc(O)cc3)CC2)nc2ccccc12 | 12 |  |  |  |  |  |
| Oc1nc(CCCN2CCc3c([nH]c4ccccc34)C2)nc2ccccc12 | 74 | 9510 | 77200 | 150 | 580 |  |
| COc1ccc(C2=CCN(CCCc3nc(O)c4ccccc4n3)CC2)cc1 | 8.3 | 1670 | 6050 | 3750 | 5610 |  |
| Oc1nc(CCCN2CC=C(c3ccccc3)CC2)nc2cccc(F)c12 |  | 140 | 370 | 220 | 1620 |  |
| O=c1[nH]c(CCCN2CC=C(c3ccccc3)CC2)nc2ccccc12 | 16 | 150 | 680 | 370 | 1900 |  |
